The assay is described as follows: Sensory evaluation by a trained panel, single sip protocol. It is filed as in vivo. The note with it: mean panel score, 400 ppm in water at 4° C.; for Bitter Aftertaste Intensity / Sweet Linger Intensity: 1 minute after tasting; for Overall Max Bitterness / Overall Max Sweetness: from sip up to 1 minute; for Bitter Intensity In Mouth: maximum bitterness in mouth during 5 seconds; for Sweet Intensity In Mouth: maximum sweetness in mouth during 5 seconds. As for the experimental part: The sensory profiles of CC-00326, CC-00342 and CC-00345 were compared to rebaudioside M.
A trained panel evaluated the various samples. Samples were evaluated using a single sip protocol as follows: • Samples were served at approximately 4° C. • Panelists were instructed to take 1 sip of the sample, hold in mouth for 5 seconds, expectorate, and rate the given attributes • A 5 minute break was placed between each sample and panelists were instructed to cleanse their palates with at least 1 bite of unsalted cracker and 2 sips of filtered water • Due to limited sample quantity panelists were given 7 mL aliquots of each sample • Samples were randomized within each session for each panelist • All samples were presented in replicate in each session
Samples were evaluated for the following: • Sweet taste intensity: maximum level of sweetness in mouth during 5 seconds • Bitter taste intensity: maximum level of bitterness in mouth during 5 seconds • Overall maximum sweet intensity: maximum sweet intensity experienced from the time the sip is taken up to 1 minute • Overall maximum bitter intensity: […] experienced from the time the sip is taken up to 1 minute • Sweet linger intensity: sweet intensity 1 minute after tasting the sample • Bitter aftertaste intensity: bitter intensity 1 minute after tasting the sample
Data was analyzed with an ANOVA, with Sample as fixed effects and Panelist and interaction as random effects was used to determine significance between the samples for each attribute at the 95% Confidence Level, two-tailed. Fishers LSD was used to determine significant differences between mean scores.
The sensory profile of (i) 400 ppm CC-00326 was compared to (ii) 400 ppm Reb M 80% (rebaudioside M content 80% by weight on a dry basis). Both samples (i) and (ii) were formulated in a water matrix at 4° C.
The sensory profile of (i) 400 ppm CC-00342 was compared to (ii) 400 ppm Reb M 95% (rebaudioside M content 95% by weight on a dry basis). Both samples (i) and (ii) were formulated in a water matrix at 4° C.
The sensory profile of (i) 400 ppm CC-00345 was compared to (ii) 400 ppm Reb M 95% (rebaudioside M content 95% by weight on a dry basis). Both samples (i) and (ii) were formulated in a water matrix at 4° C.

Setting [1] is: Table 1 (CC-00326 vs Reb M 80%).
Where [2] appears, read: Table 2 (CC-00342 vs Reb M 95%).
The mark [3] stands for this setting: Table 3 (CC-00345 vs Reb M 95%).
[4] abbreviates: Table 3 (CC-00345 vs Reb M 95%), p = 0.08 at the 90% CL.

For the molecule `C=C1C[C@@]23CCC4[C@](C)(C(=O)OC5OC(COC6OC(CO)C(O)C(O)C6O)C(O)C(O)C5O)CCC[C@@]4(C)[C@@H]2CCC1(OC1OC(CO)C(O)C(OC2OC(CO)C(O)C(O)C2O)C1OC1OC(CO)C(O)C(O)C1O)C3` (stereo partly drawn) [CC-00326, 13-[(2-O-β-D-glucopyranosyl-3-O-β-D-glucopyranosyl-β-D-glucopyranosyl)oxy] ent-kaur-16-en-19-oic acid-[(6-O-α-D-glucopyranosyl-β-D-glucopyranosyl) ester]], under setting [1], the “Bitter Aftertaste Intensity” value was 0.9 A, the “Sweet Linger Intensity” value came to 3.9 A, the “Overall Max Bitterness” value is 1.6 B and the “Overall Max Sweetness” value came to 7.9 A. Moreover, under setting [1], the “Bitter Intensity In Mouth” value is on record as 0.8 B and the “Sweet Intensity In Mouth” value is recorded as 6.9 B.

For `C=C1C[C@@]23CCC4[C@](C)(C(=O)OC5OC(COC6OC(CO)C(O)C(O)C6O)C(O)C(O)C5OC5OC(CO)C(O)C(O)C5O)CCC[C@@]4(C)[C@@H]2CCC1(OC1OC(CO)C(O)C(OC2OC(CO)C(O)C(O)C2O)C1OC1OC(CO)C(O)C(O)C1O)C3` (stereo partly drawn) [CC-00342], under setting [2], the “Bitter Aftertaste Intensity” value worked out at 1.0, the “Sweet Linger Intensity” value came to 3.8 A, the “Overall Max Bitterness” value was determined as 2.0 and the “Overall Max Sweetness” value was 8.1 A. For the same molecule, under setting [2], the “Bitter Intensity In Mouth” value was found to be 1.2 and the “Sweet Intensity In Mouth” value stood at 6.7 A.

In the case of `C=C1C[C@@]23CCC4[C@](C)(C(=O)OC5OC(COC6OC(CO)C(O)C(O)C6O)C(O)C(OC6OC(CO)C(O)C(O)C6O)C5OC5OC(CO)C(O)C(O)C5O)CCC[C@@]4(C)[C@@H]2CCC1(OC1OC(CO)C(O)C(OC2OC(CO)C(O)C(O)C2O)C1OC1OC(CO)C(O)C(O)C1O)C3` (stereo partly drawn) [CC-00345], under setting [3], the “Bitter Aftertaste Intensity” value is recorded as 1.8 A, the “Sweet Linger Intensity” value is recorded as 3.9 A, the “Overall Max Sweetness” value is reported as 7.2 A and the “Bitter Intensity In Mouth” value is given as 1.3 A. The “Sweet Intensity In Mouth” value under setting [3] came out at 6.6 A. In addition, the “Overall Max Bitterness” value under setting [4] is given as 2.2 A.

On to `C=C1C[C@@]23CC[C@H]4[C@@](C)(CCC[C@@]4(C)C(=O)O[C@@H]4O[C@H](CO)[C@@H](O)[C@H](O[C@@H]5O[C@H](CO)[C@@H](O)[C@H](O)[C@H]5O)[C@H]4O[C@@H]4O[C@H](CO)[C@@H](O)[C@H](O)[C@H]4O)[C@@H]2CC[C@]1(O[C@@H]1O[C@H](CO)[C@@H](O)[C@H](O[C@@H]2O[C@H](CO)[C@@H](O)[C@H](O)[C@H]2O)[C@H]1O[C@@H]1O[C@H](CO)[C@@H](O)[C@H](O)[C@H]1O)C3` [Reb M 80%, rebaudioside M], for which, under setting [1], the “Bitter Aftertaste Intensity” value is listed as 1.1 A, the “Sweet Linger Intensity” value came out at 4.3 A, the “Overall Max Bitterness” value is recorded as 2.3 A and the “Overall Max Sweetness” value is 9.0 A. Moreover, under setting [1], the “Bitter Intensity In Mouth” value stood at 1.6 A and the “Sweet Intensity In Mouth” value amounted to 8.3 A.

In the case of `C=C1C[C@@]23CC[C@H]4[C@@](C)(CCC[C@@]4(C)C(=O)O[C@@H]4O[C@H](CO)[C@@H](O)[C@H](O[C@@H]5O[C@H](CO)[C@@H](O)[C@H](O)[C@H]5O)[C@H]4O[C@@H]4O[C@H](CO)[C@@H](O)[C@H](O)[C@H]4O)[C@@H]2CC[C@]1(O[C@@H]1O[C@H](CO)[C@@H](O)[C@H](O[C@@H]2O[C@H](CO)[C@@H](O)[C@H](O)[C@H]2O)[C@H]1O[C@@H]1O[C@H](CO)[C@@H](O)[C@H](O)[C@H]1O)C3` [Reb M 95%, rebaudioside M], under setting [2], the “Bitter Aftertaste Intensity” value worked out at 1.0, the “Sweet Linger Intensity” value stood at 4.5 A, the “Overall Max Bitterness” value came out at 2.0 and the “Overall Max Sweetness” value came to 8.5 A. For the same molecule, under setting [2], the “Bitter Intensity In Mouth” value came out at 1.1 and the “Sweet Intensity In Mouth” value is on record as 7.0 A. In addition, under setting [3], the “Bitter Aftertaste Intensity” value is 1.3 A, the “Sweet Linger Intensity” value is given as 3.6 A, the “Overall Max Sweetness” value was found to be 7.4 A and the “Bitter Intensity In Mouth” value is listed as 1.3 A. The “Sweet Intensity In Mouth” value under setting [3] came to 7.1 A. The “Overall Max Bitterness” value under setting [4] is 1.5 A.

The values above are taken from patent US11851695B2, “Preparing novel steviol glycosides by bioconversion” (The Coca-Cola Company, priority 2016, dated 2023).
